Starred links: 1 amine or outer side, 2 acyl side, 3 side chain; linkers in the order of their positions; H or OH if unused. Positions of bridges follow the written chain, without caps; N, C: chain ends. Non-standard residues stand in square brackets, D forms with d. Residues, ends and D or L forms follow the SMILES beside them. ξ: configuration not given here. *: point of attachment. X1 = N=C1NCCC([C@H](N[*:1])C(=O)[*:2])N1; ΔAla(Z-3-ureido) = NC(=O)N/C=C(\N)C(=O)O; ξβ3hOrn = NCCCC(N)CC(=O)*; Dap = NC[C@H](N)C(=O)O
How the values were obtained:
[1] = target: T1, Solute carrier organic anion transporter family member 1B1 (Homo sapiens, UniProt Q9Y6L6); conditions: chinese hamster, cho, 10 µM
T1 sequence (Q9Y6L6 whole entry): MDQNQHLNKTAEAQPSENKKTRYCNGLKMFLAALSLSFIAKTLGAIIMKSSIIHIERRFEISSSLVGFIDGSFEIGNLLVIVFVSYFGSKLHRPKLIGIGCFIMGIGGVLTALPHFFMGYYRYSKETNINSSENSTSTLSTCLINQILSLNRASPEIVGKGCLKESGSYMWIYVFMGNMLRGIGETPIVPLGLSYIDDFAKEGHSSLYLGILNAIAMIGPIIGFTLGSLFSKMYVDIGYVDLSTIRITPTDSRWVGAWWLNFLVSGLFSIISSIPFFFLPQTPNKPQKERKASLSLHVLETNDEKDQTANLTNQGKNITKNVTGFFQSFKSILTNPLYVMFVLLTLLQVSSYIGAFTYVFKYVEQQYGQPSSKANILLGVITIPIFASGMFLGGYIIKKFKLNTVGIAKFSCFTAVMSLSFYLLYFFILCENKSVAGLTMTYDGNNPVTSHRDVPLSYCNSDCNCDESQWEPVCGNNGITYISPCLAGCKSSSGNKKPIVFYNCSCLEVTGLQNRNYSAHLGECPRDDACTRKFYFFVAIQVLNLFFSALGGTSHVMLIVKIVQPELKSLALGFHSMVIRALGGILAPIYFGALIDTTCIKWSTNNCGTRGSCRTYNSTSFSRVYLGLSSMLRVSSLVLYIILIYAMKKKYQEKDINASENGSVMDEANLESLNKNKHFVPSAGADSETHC

[2] = target: T2, Solute carrier organic anion transporter family member 1B3 (Homo sapiens, UniProt Q9NPD5); conditions: chinese hamster, cho, 10 µM
T2 sequence (Q9NPD5 whole entry): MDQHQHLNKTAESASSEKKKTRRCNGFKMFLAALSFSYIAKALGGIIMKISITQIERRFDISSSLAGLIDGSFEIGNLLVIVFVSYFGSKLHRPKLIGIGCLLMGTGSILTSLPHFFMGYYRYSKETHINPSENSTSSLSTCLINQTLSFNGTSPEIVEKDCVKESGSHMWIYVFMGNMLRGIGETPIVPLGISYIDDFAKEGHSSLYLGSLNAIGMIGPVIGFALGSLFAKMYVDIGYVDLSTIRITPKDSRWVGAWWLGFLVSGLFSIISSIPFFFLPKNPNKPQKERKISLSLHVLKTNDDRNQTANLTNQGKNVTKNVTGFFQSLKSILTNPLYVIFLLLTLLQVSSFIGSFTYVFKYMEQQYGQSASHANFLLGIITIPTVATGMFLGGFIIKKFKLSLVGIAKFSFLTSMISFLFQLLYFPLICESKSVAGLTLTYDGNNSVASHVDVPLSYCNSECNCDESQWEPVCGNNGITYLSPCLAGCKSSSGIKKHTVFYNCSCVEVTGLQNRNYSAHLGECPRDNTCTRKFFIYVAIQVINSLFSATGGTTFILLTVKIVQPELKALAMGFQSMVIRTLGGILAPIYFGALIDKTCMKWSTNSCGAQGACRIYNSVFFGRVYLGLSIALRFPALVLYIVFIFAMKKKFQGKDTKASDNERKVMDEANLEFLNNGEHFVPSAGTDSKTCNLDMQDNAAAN

SMILES	residual activity [1]	residual activity [2]
COc1cc2c(cc1OC)[C@@H]1C(=O)c3ccc(O)c(CC=C(C)C)c3O[C@@H]1CO2 [ROTENONIC ACID]	53.2%	99.21%
O=C1NC(=O)C(=O)C(=O)N1 [ALLOXAN]	118.2%	108.5%
CC(C)N(C(=O)SCC(Cl)=C(Cl)Cl)C(C)C [TRIALLATE]	119.9%	109.6%
O=C(O)c1cc2cc(Cl)ccc2[nH]1 [5-CHLOROINDOLE-2-CARBOXYLIC ACID]	75.02%	91.36%
CC(C)(C)NCC(O)c1cc(Cl)c(N)c(Cl)c1.Cl (configuration not stated) [CLENBUTEROL HYDROCHLORIDE]	78.76%	99.43%
Cl.N=c1ccn2c(n1)O[C@H]1[C@H](O)[C@@H](CO)O[C@H]12 [ANCITABINE HYDROCHLORIDE]	68.78%	66.03%
C=CCSCC1Nc2cc(Cl)c(S(N)(=O)=O)cc2S(=O)(=O)N1 (configuration not stated) [ALTHIAZIDE]	107.1%	95.11%
Nc1ccc(C(=O)[O-])c(O)c1.O.O.[Na+] [AMINOSALICYLATE SODIUM]	75.75%	88.86%
O=C1C[C@@H]2OCC=C3CN4CC[C@]56c7ccccc7N1[C@H]5[C@H]2[C@H]3C[C@H]46 [STRYCHNINE]	79.74%	93.97%
C[C@@H]1C[C@H]2[C@@H]3C[C@H](F)C4=CC(=O)C=C[C@]4(C)[C@@]3(F)[C@@H](O)C[C@]2(C)[C@@]1(O)C(=O)CO [FLUMETHASONE]	84.89%	135.8%
O=[N+]([O-])c1cccc2cn[nH]c12 [7-NITROINDAZOLE]	147.5%	106.1%
Cc1scc2c1N(C(=O)CN1CCN(C)CC1)c1ccccc1NC2=O.Cl [TELENZEPINE HYDROCHLORIDE]	99.27%	93.24%
CN(C)c1ccc(O)c2c1C[C@H]1C[C@H]3[C@H](N(C)C)C(O)=C(C(N)=O)C(=O)[C@@]3(O)C(O)=C1C2=O.Cl [MINOCYCLINE HYDROCHLORIDE]	100.7%	96.34%
CCOC(=O)c1c(C)cc(O)c(C=O)c1O [ETHYL HEMATOMMATE]	61.89%	77.96%
Cl.NCCc1ccc(S(=O)(=O)F)cc1 [4-AMINOETHYLBENZENESULFONYL FLUORIDE HYDROCHLORIDE]	71.73%	100%
S=P(N1CC1)(N1CC1)N1CC1 [THIOTEPA]	67.53%	70.43%
CCOC(=O)C(Cc1ccc(O)cc1)NC(C)=O (configuration not stated) [ACETYL TYROSINE ETHYL ESTER]	118.5%	103.5%
OC[C@H]1O[C@@H](O[C@H]2[C@H](O)[C@@H](O)[C@@H](O)O[C@@H]2CO)[C@H](O)[C@@H](O)[C@@H]1O [CELLBIOSE]	90.6%	109.6%
CC(C)CC(N(C)C)C1(c2ccc(Cl)cc2)CCC1.Cl (configuration not stated)	96.94%	113.9%
CC1(C)C(C(Cl)Cl)C2(Cl)C(Cl)C(Cl)C1(Cl)C2(Cl)Cl (configuration not stated) [TOXAPHENE]	111.3%	109.5%
CNC(=O)O/N=C/C(C)(C)SC [ALDICARB]	120.5%	80.05%
CN[C@H](CC(C)C)C(=O)N[C@H]1C(=O)N[C@@H](CC(N)=O)C(=O)N[C@H]2C(=O)N[C@H]3C(=O)N[C@H](C(=O)N[C@H](C(=O)O)c4cc(O)cc(O)c4-c4cc3ccc4O)[C@H](O)c3ccc(c(Cl)c3)Oc3cc2cc(c3O[C@@H]2O[C@H](CO)[C@@H](O)[C@H](O)[C@H]2O[C@H]2C[C@](C)(N)[C@H](O)[C@H](C)O2)Oc2ccc(cc2Cl)[C@H]1O.Cl [VANCOMYCIN HYDROCHLORIDE]	99.99%	103.2%
COc1cc2c(cc1OC)C(=O)c1ccc(OC)c(OC)c1OCC(=O)C2 [HAEMATOXYLONE, TETRAMETHYL-]	141.3%	90.54%

SMILES	residual activity [1]	residual activity [2]
O=c1c(O)c(-c2ccccc2)oc2ccccc12 [FLAVONOL]	133.5%	102.6%
NC(=O)c1cnccn1 [PYRAZINAMIDE]	79.24%	116.6%
COc1ccc2c(c1)[nH]c1c(C)nccc12 [HARMINE]	105.3%	101.7%
O=C(O)C1CCCNC1 (configuration not stated) [NIPECOTIC ACID]	91.42%	103.2%
C[C@@H]1NC(=O)[C@@H](N)CNC(=O)[C@H](C2CCNC(=N)N2)NC(=O)/C(=C/NC(N)=O)NC(=O)[C@H](CNC(=O)CC(N)CCCN)NC1=O.N=C1NCCC([C@@H]2NC(=O)/C(=C/NC(N)=O)NC(=O)[C@H](CNC(=O)CC(N)CCCN)NC(=O)[C@H](CO)NC(=O)[C@@H](N)CNC2=O)N1.O=S(=O)(O)O.O=S(=O)(O)O (stereo partly drawn) [CAPREOMYCIN SULFATE] (H-[Dap]S[Dap](ξβ3hOrn)[ΔAla(Z-3-ureido)][X1]; lactam 1-C)	89.76%	80.84%
N[C@@H](Cc1ccc(O)c(O)c1)C(=O)O [LEVODOPA]	86.05%	90.65%
COc1ccc2c(c1OC)C(=O)O[C@@H]2[C@H]1c2c(cc3c(c2OC)OCO3)CCN1C.Cl [NOSCAPINE HYDROCHLORIDE]	114.6%	93.17%
CCCCCCc1ccc(O)cc1O [HEXYLRESORCINOL]	115.5%	84.11%
COC(=O)c1c(Cl)c(Cl)c(C(=O)OC)c(Cl)c1Cl [DACTHAL]	103.5%	106.6%
CC(=O)Oc1cc2c(c(C)c1OC(C)=O)CC1OC13[C@@]2(C)CC[C@@]1(C)C2C[C@](C)(C(=O)O)CC[C@]2(C)CC[C@]31C (some centres not stated)	63.61%	37.72%
Clc1ccc(C(c2ccc(Cl)cc2)C(Cl)(Cl)Cl)cc1 [CHLOROPHENOTHANE]	124.5%	116.2%
CC(C)C1COc2cc3oc(=O)ccc3cc2O1 (configuration not stated) [DIHYDRO-OBLIQUIN]	74.37%	74.86%
CCCCC1C(=O)N(c2ccccc2)N(c2ccc(O)cc2)C1=O (configuration not stated) [OXYPHENBUTAZONE ANHYDROUS]	42.04%	83.15%
CCCCCC1C(=O)CCC1CC(=O)OC (configuration not stated) [DIHYDROJASMONIC ACID, METHYL ESTER]	109.5%	82.72%
C=C(C)C1(O)OC(=O)C=C1OC (configuration not stated) [PENICILLIC ACID]	110.4%	96.2%
Cc1c(OCC(F)(F)F)ccnc1C[S+]([O-])c1nc2ccccc2[nH]1 (configuration not stated) [LANSOPRAZOLE]	95.47%	100.5%
CC(=O)[C@H]1CC[C@H]2[C@@H]3CC[C@H]4C[C@H](O)CC[C@]4(C)[C@H]3CC[C@]12C [BREXANOLONE]	41.5%	89.68%
C[N+]12CCC(CC1)C(OC(=O)C(O)(c1ccccc1)c1ccccc1)C2.[Br-] (configuration not stated) [CLIDINIUM BROMIDE]	125.2%	92.46%
C#CCCCCCCCCCCCC(=O)CC(O)COC(C)=O (configuration not stated) [AVOCADYNONE ACETATE]	124.8%	100.5%
CC(=O)CC(c1ccccc1)c1c(O)c2ccccc2oc1=O (configuration not stated) [WARFARIN]	122.2%	66.67%
CCCCCCCCCCCC1=C(O)C(=O)C=C(O)C1=O [EMBELIN]	98.02%	94.22%
NC(=O)c1ncn([C@@H]2O[C@H](CO)[C@@H](O)[C@H]2O)n1 [RIBAVIRIN]	112.3%	87.39%
C[C@](N)(Cc1ccc(O)c(O)c1)C(=O)O [METHYLDOPA]	111.3%	103.5%

Source: ChEMBL document CHEMBL3039007, “Structure-based identification of OATP1B1/3 inhibitors” (Mol Pharmacol, 2013)
